Data as given in PubChem BioAssay AID652227 (The Scripps Research Institute Molecular Screening Center, 2013).

Biological target: Serine/threonine-protein phosphatase PP1-alpha catalytic subunit (Homo sapiens) (UniProt P62136)
Test: PP1 inhibition of glycogen phosphorylase dephosphorylation, late-stage follow-up, orthogonal assay for PP1 inhibitor probe project, biochemical, radiolabel, dose response, powder samples, set 2 (AID 652227)
Conditions: purified PP1alpha, 32P/33P-phosphorylase dephosphorylation, scintillation

Sequence of Serine/threonine-protein phosphatase PP1-alpha catalytic subunit (Homo sapiens) (P62136 whole entry, looked up): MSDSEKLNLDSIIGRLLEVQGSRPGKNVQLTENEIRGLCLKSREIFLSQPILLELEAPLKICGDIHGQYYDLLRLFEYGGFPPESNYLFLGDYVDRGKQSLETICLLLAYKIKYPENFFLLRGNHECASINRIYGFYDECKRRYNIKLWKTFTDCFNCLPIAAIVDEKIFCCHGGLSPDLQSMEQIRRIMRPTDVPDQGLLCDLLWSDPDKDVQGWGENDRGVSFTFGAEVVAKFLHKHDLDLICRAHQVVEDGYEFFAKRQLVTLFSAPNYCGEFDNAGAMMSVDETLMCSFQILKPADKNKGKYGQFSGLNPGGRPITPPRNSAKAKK

Row | Compound | IC50 [µM]
1 | CCOC(=O)c1sc2nc3c(SCC(=O)O)cc(C(=O)c4cc(F)ccc4O)cn3c(=O)c2c1C | 8.54
2 | CN1CCN(C(c2ccccn2)c2cc(Cl)c3cccnc3c2O)CC1 (stereo not given) | 4.89
3 | COc1ccc(NC(=O)C2C3CCC(O3)C2C(=O)O)c(OC)c1 (stereo not given) | 18.9
4 | N#Cc1c(-c2ccc(Cl)cc2)cc(-c2cccs2)nc1SCC(=O)O | 21.9
5 | CCn1c2ccccc2c2cc(NC(=O)COC(=O)c3ccc(NC(=O)CC#N)cc3)ccc21 | 38
